Source: EPA's ToxValDB 9.5 (doi:10.2903/j.efsa.2013.3220)
In brackets after ≈: the same amount, converted by molar mass.

Columns and labels:
[1] = test system: Bibionidae; conditions: chronic/long-term, duration: 28 days
[2] = test system: Daphnia magna; conditions: chronic/long-term, duration: 21 days
[3] = test system: Lepomis macrochirus; conditions: acute; duration: 96 hours; mortality
[4] = test system: Rattus norvegicus; conditions: for LD50: acute, oral, mortality
[5] = test system: Anas platyrhynchos
[6] = test system: Apis mellifera; conditions: acute, mortality
[7] = test system: Canidae; conditions: chronic; duration: 1 years; oral; M/F; Dog Other; histopathology: nonneoplastic
[8] = test system: Colinus virginianus; conditions: for LD50: acute, oral, mortality
[9] = test system: Pimephales promelas; conditions: chronic/long-term; duration: 32 days; body weight
[10] = test system: Tagia sp.
[11] = test system: Zea sp.; conditions: acute, duration: 14 days
[12] = test system: Aphidius rhopalosiphi; assay: LR50; higher = less toxic; conditions: acute; duration: 48 hours; mortality
[13] = test system: Typhlodromus pyri; assay: LR50; higher = less toxic; conditions: chronic/long-term; duration: 7 days; mortality

CCO[C@@H]1[C@@H](OC)[C@H](C)O[C@@H](O[C@@H]2C[C@H]3CC[C@@H]4[C@@H](C=C5C(=O)[C@H](C)[C@@H](O[C@H]6CC[C@H](NC)[C@@H](C)O6)CCC[C@H](CC)OC(=O)C[C@H]54)[C@@H]3C2)[C@@H]1OC [N-demethyl-175-J]
NOEC [1]: 0.617 µg/L
NOEC [2]: 0.03 µg/L
LC50 [3]: 2.98 µg/mL (≈ 4.06 µM)
LD50 [4]: 3130 mg/kg-day

CCO[C@@H]1[C@@H](OC)[C@H](C)O[C@@H](O[C@@H]2C[C@H]3CC[C@@H]4[C@@H](C=C5C(=O)[C@H](C)[C@@H](O[C@H]6CC[C@H](N(C)C=O)[C@@H](C)O6)CCC[C@H](CC)OC(=O)C[C@H]54)[C@@H]3C2)[C@@H]1OC [N-demethyl-175-L]
NOEC [2]: 0.027 µg/L
LC50 [3]: 1.55 µg/mL (≈ 2.03 µM)

CCO[C@@H]1[C@@H](OC)[C@H](C)O[C@@H](OC2C[C@H]3CC[C@H]4C5CC(=O)O[C@@H](CC)CCC[C@H](O[C@H]6CC[C@H](N(C)C)[C@@H](C)O6)[C@@H](C)C(=O)C5=C[C@H]4[C@@H]3C2)[C@@H]1OC (some centres not stated) [Spinetoram]
LD50 ([5]; acute, oral, unspecified, mortality): > 2250 mg/kg-day
NOEL ([5]; reproductive): 149 mg/kg-day
LD50 ([6]; duration: 48 hours, dermal): 0.024 µg/piece
LD50 ([6]; duration: 72 hours, oral, unspecified): 0.11 µg/piece
NOEC ([1]; M/F, development): 97.2 µg/kg
NOEC ([1]; development): 0.75 µg/L
NOAEL [7]: 2.5 mg/kg-day
LD50 ([8]; diet): > 2040 mg/kg-day
LD50 [8]: > 2250 mg/kg-day
NOEL ([8]; reproduction developmental): 95 mg/kg-day
NOEC ([2]; mobility): 0.0624 µg/L
LC50 [3]: 2.69 µg/mL (≈ 3.6 µM)
NOEC [9]: 0.182 mg/L
LD50 [4]: > 5000 mg/kg-day
NOAEL ([4]; reproduction developmental, reproduction): 10 mg/kg-day
LC50 ([10]; acute, duration: 14 days, mortality): > 1000 mg/kg
NOEC ([10]; chronic/long-term, duration: 56 days, reproduction): 18.6 mg/kg
LEC ([11]; other): ≤ 150 g/ha
LEC ([11]; seedling emergence): ≤ 150 g/ha
LR50 [12]: 0.0885 g/ha
LR50 [13]: 0.132 g/ha
